Data published in ChEMBL document CHEMBL5512602, “Unlocking the synthetic approaches and clinical application of approved small-molecule drugs for gastrointestinal cancer treatment: A comprehensive exploration” (Eur J Med Chem, 2023).
pEC50, pIC50: −log10 of the molar value.

How the values were obtained:
[1] = test system: A-375; assay: Antiproliferative activity against human A-375 cells harboring BRAF V600E mutant assessed as reduction in cell growth; type: functional, cell-based
[2] = biological target: Vascular endothelial growth factor receptor 2 (Homo sapiens, UniProt P35968); assay: Inhibition of human recombinant VEGFR2 by FRET based Z-LYTE kinase assay
Vascular endothelial growth factor receptor 2, sequence (P35968 whole entry): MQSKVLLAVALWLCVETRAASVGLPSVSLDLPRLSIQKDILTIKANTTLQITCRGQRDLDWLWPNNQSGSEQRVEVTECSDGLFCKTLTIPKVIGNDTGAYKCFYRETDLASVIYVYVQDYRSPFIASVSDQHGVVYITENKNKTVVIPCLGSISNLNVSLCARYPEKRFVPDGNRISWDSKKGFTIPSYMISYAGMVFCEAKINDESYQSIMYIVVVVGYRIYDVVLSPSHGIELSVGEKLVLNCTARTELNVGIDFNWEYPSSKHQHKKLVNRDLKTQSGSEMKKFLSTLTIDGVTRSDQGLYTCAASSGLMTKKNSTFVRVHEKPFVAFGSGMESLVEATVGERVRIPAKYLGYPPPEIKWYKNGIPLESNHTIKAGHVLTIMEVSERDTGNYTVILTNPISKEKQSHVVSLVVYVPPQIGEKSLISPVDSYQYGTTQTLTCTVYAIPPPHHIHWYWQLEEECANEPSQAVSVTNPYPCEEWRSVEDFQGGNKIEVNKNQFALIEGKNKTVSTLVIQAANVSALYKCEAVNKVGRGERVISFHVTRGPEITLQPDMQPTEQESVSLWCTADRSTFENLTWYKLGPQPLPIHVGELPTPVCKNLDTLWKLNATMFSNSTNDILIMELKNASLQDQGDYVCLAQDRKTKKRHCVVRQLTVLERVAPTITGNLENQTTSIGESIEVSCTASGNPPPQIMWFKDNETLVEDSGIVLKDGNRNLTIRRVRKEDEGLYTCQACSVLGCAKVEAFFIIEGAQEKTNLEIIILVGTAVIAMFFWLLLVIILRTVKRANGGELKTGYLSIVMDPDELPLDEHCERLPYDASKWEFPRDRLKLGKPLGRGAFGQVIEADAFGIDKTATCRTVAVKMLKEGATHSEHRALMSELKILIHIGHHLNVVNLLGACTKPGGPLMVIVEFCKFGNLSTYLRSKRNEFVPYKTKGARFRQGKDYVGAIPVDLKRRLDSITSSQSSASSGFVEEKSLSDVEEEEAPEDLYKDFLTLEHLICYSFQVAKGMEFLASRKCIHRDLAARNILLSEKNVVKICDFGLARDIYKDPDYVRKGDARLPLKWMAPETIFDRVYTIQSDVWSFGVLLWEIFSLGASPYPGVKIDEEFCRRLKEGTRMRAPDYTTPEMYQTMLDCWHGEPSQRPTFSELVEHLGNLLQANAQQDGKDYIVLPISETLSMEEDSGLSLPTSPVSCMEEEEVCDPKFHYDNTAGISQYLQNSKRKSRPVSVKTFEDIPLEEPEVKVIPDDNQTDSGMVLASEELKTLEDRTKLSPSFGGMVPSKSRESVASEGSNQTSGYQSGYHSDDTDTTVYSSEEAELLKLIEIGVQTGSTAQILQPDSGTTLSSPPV

| SMILES | pEC50 [1] | pIC50 [2] |
| --- | --- | --- |
| COC(=O)N[C@@H](C)CNc1nccc(-c2cn(C(C)C)nc2-c2cc(Cl)cc(NS(C)(=O)=O)c2F)n1 [ENCORAFENIB] | 8.40 | – |
| CNC(=O)c1c(C)oc2cc(Oc3ncnc4cc(OC)c(OC)cc34)ccc12 [FRUQUINTINIB] | – | 9.46 |
